Assay results reported in patent US8865688B2, “Compositions and methods for treatment of bowel diseases with granulated mesalamine” (priority 2008, dated 2014).
“And” between values parts separate entries of the source, which are not always exact repeats. Identical values can stand only once. Like-named read-outs stand apart in the source and are kept apart here. Each block holds one compound with its values, some of them ahead of it.

Tests used:
[1] = Effect of high fat meal on absorption of 1.6 g mesalamine granules in sachet, crossover, healthy subjects; type: in vivo, human; settings: for Tmax following a high-fat meal: 1.6 g granulated mesalamine (2×0.8 g); for Effect of high fat meal on plasma Cmax: fed vs fasted, 80%:125% rule
CYP1A2 = target: T1, CYP1A2 (Homo sapiens, UniProt P05177); assay: In vitro drug-drug interaction study, human liver microsomes; type: in vitro ADME
T1 construct: In an in vitro study using human liver microsomes; from tissue; host or cells: human liver microsomes
T1 sequence (P05177 1-516): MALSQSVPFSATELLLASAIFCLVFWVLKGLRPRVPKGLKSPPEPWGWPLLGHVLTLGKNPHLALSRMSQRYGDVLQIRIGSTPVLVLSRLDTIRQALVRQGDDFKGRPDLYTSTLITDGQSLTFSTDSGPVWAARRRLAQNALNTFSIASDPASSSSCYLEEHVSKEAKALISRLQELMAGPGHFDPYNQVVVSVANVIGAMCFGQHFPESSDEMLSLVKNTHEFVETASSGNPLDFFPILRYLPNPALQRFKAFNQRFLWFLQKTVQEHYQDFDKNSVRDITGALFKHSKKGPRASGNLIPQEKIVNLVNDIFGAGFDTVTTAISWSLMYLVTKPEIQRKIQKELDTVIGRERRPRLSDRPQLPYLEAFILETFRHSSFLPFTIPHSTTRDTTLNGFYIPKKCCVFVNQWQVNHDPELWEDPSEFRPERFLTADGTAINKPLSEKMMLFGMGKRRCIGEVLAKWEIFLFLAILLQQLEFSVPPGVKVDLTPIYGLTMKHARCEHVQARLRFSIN

CYP2C9 = CYP2C9 (Homo sapiens, UniProt P11712); assay: as above; type: in vitro ADME
CYP2C9, sequence (P11712 whole entry): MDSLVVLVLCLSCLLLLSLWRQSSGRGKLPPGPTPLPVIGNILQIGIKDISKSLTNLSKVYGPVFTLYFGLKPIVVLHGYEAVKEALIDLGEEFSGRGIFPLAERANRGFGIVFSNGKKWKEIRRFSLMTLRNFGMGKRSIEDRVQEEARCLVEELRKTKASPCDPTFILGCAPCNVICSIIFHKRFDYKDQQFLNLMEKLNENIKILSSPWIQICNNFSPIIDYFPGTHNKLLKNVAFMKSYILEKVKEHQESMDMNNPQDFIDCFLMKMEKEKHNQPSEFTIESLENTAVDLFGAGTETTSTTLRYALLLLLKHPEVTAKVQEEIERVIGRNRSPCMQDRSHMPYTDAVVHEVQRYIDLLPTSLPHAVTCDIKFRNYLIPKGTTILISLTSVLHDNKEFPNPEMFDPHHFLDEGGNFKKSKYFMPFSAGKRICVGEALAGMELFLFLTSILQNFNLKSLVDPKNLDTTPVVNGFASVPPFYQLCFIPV

CYP2C19 = CYP2C19 (Homo sapiens, UniProt P33261); assay: as above; type: in vitro ADME
CYP2C19, sequence (P33261 whole entry): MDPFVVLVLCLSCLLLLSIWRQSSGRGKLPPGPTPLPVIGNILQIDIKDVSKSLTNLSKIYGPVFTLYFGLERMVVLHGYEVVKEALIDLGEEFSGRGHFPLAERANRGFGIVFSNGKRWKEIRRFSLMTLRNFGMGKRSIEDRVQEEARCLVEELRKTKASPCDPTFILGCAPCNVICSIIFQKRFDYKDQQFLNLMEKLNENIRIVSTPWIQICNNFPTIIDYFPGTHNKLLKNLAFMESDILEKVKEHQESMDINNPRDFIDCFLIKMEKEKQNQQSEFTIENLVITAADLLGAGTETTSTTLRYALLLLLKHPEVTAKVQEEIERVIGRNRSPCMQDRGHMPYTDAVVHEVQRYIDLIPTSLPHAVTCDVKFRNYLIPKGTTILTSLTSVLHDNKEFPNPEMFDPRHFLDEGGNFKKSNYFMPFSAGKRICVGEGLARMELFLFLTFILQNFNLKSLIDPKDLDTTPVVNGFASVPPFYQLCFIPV

CYP2D6 = CYP2D6 (Homo sapiens, UniProt P10635); assay: as above; type: in vitro ADME
CYP2D6, sequence (P10635 whole entry): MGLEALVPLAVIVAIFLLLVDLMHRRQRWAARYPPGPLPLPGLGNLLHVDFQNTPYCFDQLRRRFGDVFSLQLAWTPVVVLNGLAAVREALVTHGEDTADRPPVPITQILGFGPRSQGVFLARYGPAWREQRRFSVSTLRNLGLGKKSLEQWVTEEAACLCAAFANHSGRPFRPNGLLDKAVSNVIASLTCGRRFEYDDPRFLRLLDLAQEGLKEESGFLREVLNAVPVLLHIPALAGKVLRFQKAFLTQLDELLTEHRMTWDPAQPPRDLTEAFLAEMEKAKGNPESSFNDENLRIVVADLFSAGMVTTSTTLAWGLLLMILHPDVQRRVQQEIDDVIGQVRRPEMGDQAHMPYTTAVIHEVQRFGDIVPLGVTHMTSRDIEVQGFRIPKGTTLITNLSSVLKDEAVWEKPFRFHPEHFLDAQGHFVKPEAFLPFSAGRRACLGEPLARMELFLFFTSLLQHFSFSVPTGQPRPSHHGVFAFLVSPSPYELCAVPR

CYP3A4 = CYP3A4 (Homo sapiens, UniProt P08684); assay: as above; type: in vitro ADME
CYP3A4, sequence (P08684 whole entry): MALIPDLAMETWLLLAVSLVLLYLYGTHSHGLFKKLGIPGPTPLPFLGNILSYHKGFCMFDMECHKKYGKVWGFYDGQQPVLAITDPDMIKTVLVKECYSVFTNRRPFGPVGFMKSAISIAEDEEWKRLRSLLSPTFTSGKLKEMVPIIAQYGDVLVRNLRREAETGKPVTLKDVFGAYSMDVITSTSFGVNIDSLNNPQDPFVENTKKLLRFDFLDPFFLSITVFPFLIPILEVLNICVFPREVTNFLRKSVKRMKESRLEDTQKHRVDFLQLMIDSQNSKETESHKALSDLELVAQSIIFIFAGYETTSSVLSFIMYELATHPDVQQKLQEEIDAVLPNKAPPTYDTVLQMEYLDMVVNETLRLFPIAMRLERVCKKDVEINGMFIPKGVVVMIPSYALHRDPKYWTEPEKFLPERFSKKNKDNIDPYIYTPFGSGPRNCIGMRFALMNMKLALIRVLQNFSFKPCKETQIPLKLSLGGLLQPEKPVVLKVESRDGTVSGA

mice [2] = assay: Dietary carcinogenicity study; type: in vivo; settings: 2000 mg/kg/day
Description: (§1) These doses are about 2.6 and 5.4 times the recommended human dose of granulated mesalamine capsules of 1.5 g/day (30 mg/kg if 50 kg body weight assumed or 1110 mg/m^2), respectively, based on body surface area. Mesalamine was negative in the Ames test, the mouse lymphoma cell (L5178Y/TK+/−) forward mutation test, the sister chromatid exchange assay in the Chinese hamster bone marrow test, and the mouse bone marrow micronucleus test.

rats [3] = assay: Dietary carcinogenicity study; type: in vivo; settings: doses as high as 480 mg/kg/day
Description: as §1

Ames test = type: cell-based
Description: as §1

[4] = tested on: mouse lymphoma cell (L5178Y/TK+/−); assay: Mouse lymphoma cell forward mutation test; type: cell-based
Description: as §1

[5] = tested on: Chinese hamster bone marrow; assay: Sister chromatid exchange assay in the Chinese hamster bone marrow test; settings: in vivo
Description: as §1

rats [6] = assay: Fertility and reproductive performance study; type: in vivo; settings: oral doses up to 320 mg/kg
rats [7] = assay: 13-week and 26-week oral toxicity studies (renal toxicity); type: in vivo
Source text: (§2) Animal studies with mesalamine (13-week and 26-week oral toxicity studies in rats, and 26-week and 52-week oral toxicity studies in dogs) have shown the kidney to be the major target organ of mesalamine toxicity.

dogs = assay: 26-week and 52-week oral toxicity studies (renal toxicity); type: in vivo; settings: oral 60 mg/kg/day (about 1.1 times the human dose) or higher
Source text: as §2

rats [8] = assay: Reproduction studies; settings: rat, in vivo
rabbits = assay: Reproduction studies; settings: rabbit, in vivo
[9] = Detection in human breast milk; settings: in vivo
[10] = Steady state pharmacokinetics, 3 treatments of 4 days: Asacol 800 mg BID, granulated mesalamine formulation 800 mg BID and 1600 mg QD; type: in vivo, human; settings: for Tmax: median (range); for Systemic exposure, QD versus BID regimen: granulated mesalamine formulation 1600 mg QD vs 800 mg BID
Description: In a study of 3 treatments in 3 study periods, each separated by a minimum washout of 7 days, treatments were administered orally, and were as follows:
Subjects received treatments A, B, and C, with each administered during one of the three 4-day study treatment periods.
Each treatment regimen lasted for 4 days and was followed by at least a 7 day washout period.

[11] = human, in vivo
mice [12] = settings: mouse, in vivo
rats [13] = settings: rat, in vivo
[14] = human, in vivo, 1600 mg
clinical [15] = settings: human, in vivo
clinical [16] = settings: human, in vivo, 1600 mg
[17] = In vitro plasma protein binding
[18] = Single and multiple oral dose pharmacokinetics of 1.5 g granulated mesalamine formulation, crossover, healthy subjects, fasting; settings: for AUC(0-t): AUC0-24, plasma, n = 24; for AUC(0-t) / Cmax: mean ±SD; for Tmax: median (range)
in vitro = settings: plasma
[19] = granulated mesalamine formulation
[20] = granulated mesalamine formulation administered BID
[21] = granulated mesalamine formulation administered QD
[22] = human, plasma, oral, 800 mg, AUCC, Day 4, after MP 800 mg BID, converted from μmol * h/L, read-out: AUC
[23] = human, plasma, oral, 800 mg, AUCC, Day 4, after Treatment A Asacol 800 mg BID, mean ± SD, read-out: AUC
[24] = human, plasma, oral, 800 mg, AUCC, Day 4, after Treatment B MP 800 mg BID, mean ± SD, read-out: AUC
[25] = human, plasma, oral, 800 mg, Day 4, after Asacol 800 mg BID, converted from μmol/L, mean ± SD
[26] = human, plasma, oral, 800 mg, Day 4, after MP 800 mg BID, converted from μmol/L, mean ± SD
[27] = human, plasma, oral, 800 mg, plasma, Day 4, after Treatment A Asacol 800 mg BID, n = 28, mean ± SD
[28] = human, plasma, oral, 800 mg, plasma, Day 4, after Treatment B MP 800 mg BID, n = 28, mean ± SD
[29] = human, plasma, oral, 1600 mg, AUC0-24, Day 4, after MP 1600 mg QD, converted from μmol * h/L, read-out: AUC
[30] = human, plasma, oral, 1600 mg, AUC0-24, Day 4, after Treatment C MP 1600 mg QD, mean ± SD, read-out: AUC
[31] = human, plasma, oral, 1600 mg, Day 4, after MP 1600 mg QD, converted from μmol/L, mean ± SD
[32] = human, plasma, oral, 1600 mg, plasma, Day 4, after Treatment C MP 1600 mg QD, n = 28, mean ± SD
[33] = human, plasma, oral, Day 4, after MP 800 mg BID, time from first dose, read-out: Tmax
[34] = human, plasma, oral, Day 4, after MP 1600 mg QD, read-out: Tmax
[35] = MP 1600 mg QD versus MP 800 mg BID, geometric mean ratio
[36] = human, plasma, oral, 1.5 g, multiple dose 1.5 g QD, after 7 days
[37] = human, plasma, oral, 1.5 g, single dose 1.5 g

Compound: Nc1ccc(O)c(C(=O)O)c1 [Mesalamine (5-ASA), 5-aminosalicylic acid]
Increase in AUC0-inf following a high-fat meal ([1]; 1.6 g granulated mesalamine): 11% | Increase in AUC0-last following a high-fat meal ([1]; 1.6 g granulated mesalamine): 16% | Tmax following a high-fat meal [1]: prolonged | Increase in cumulative urinary excretion with a high fat meal ([1]; 1.6 g granules): 27% | Effect of high fat meal on plasma Cmax ([1]; 1.6 g granules, listed as 5-ASA): did not affect | Effect of high fat meal on plasma Cmax ([1]; 1.6 g granules, listed as mesalamine): equivalent | Inhibition of CYP1A2 (CYP1A2): not to inhibit | Inhibition of CYP2C9 (CYP2C9): not to inhibit | Inhibition of CYP2C19 (CYP2C19): not to inhibit | Inhibition of CYP2D6 (CYP2D6): not to inhibit | Inhibition of CYP3A4 (CYP3A4): not to inhibit | Carcinogenicity (mice [2]): not carcinogenic | Carcinogenicity (rats [3]): not carcinogenic | Ames test result (Ames test): negative | Forward mutation test result [4]: negative | Sister chromatid exchange assay result [5]: negative | Effect on fertility or reproductive performance (rats [6]): no effect | Renal finding (rats [7]; oral 40 mg/kg/day (about 0.20 times the human dose)): minimal to slight tubular injury | Renal finding (rats [7]; oral 160 mg/kg/day (about 0.90 times the human dose) or higher): renal lesions including tubular degeneration, tubular mineralization, and papillary necrosis | Renal finding (dogs): renal lesions including tubular atrophy, interstitial cell infiltration, chronic nephritis, and papillary necrosis | Reproduction study finding (rats [8]): no evidence of impaired fertility or harm to the fetus | Reproduction study finding (rabbits): no evidence of impaired fertility or harm to the fetus | Concentration detected in human breast milk [9]: low concentrations | Tmax ([10]; Day 4, after Asacol 800 mg BID): 16.0 (0, 24.0) h and 16.0 (0, 24.0)^e h | Steady state plasma concentrations as measured by Cmax, QD compared to BID [10, 19]: higher | Systemic exposure, QD versus BID regimen [10]: comparable | Time to maximum drug concentrations, mean [10, 20]: 11.00 h | Time to maximum drug concentrations, mean [10, 21]: 3.96 h | AUC ([10]; human, plasma, oral, 800 mg, AUCC, Day 4, after Asacol 800 mg BID, converted from μmol * h/L, read-out: AUC): 8.34 ± 7.5 ng·h/mL | AUC [10, 22]: 14800 ± 5500 ng·h/mL | AUC [10, 23]: 54.5 ± 49 µM·h | AUC [10, 24]: 97 ± 35.9 µM·h | Cmax [10, 25]: 1060 ± 1370 ng/mL | Cmax [10, 26]: 1820 ± 710 ng/mL | Cmax [10, 27]: 6.93 ± 8.99 µM | Cmax [10, 28]: 11.9 ± 4.65 µM | AUC [10, 29]: 14800 ± 6490 ng·h/mL | AUC [10, 30]: 96.5 ± 42.4 µM·h | Cmax [10, 31]: 3040 ± 1670 ng/mL | Cmax [10, 32]: 19.9 ± 10.9 µM | Tmax [10, 33]: 16 h | Tmax [10, 34]: 3 h | Increase in systemic exposure (AUC0-24) at steady state compared with a single dose [11]: 1.5 fold | Lethal single oral dose (mice [12]): 800 mg/kg | Lethal single oral dose (rats [13]): 1800 mg/kg | T1/2 [14]: 5.49 h | AUC(0-inf) (clinical [15]): 14000 ± 5000 ng·h/mL | AUC(0-t) (clinical [15]; AUC0-24): 11000 ± 5000 ng·h/mL | Cmax (clinical [15]; Cmax): 2100 ± 1100 ng/mL | Tmax (clinical [15]; Tmax): 4 h | half-life (clinical [16]): 5.49 h | fraction unbound at 2.5 μg/mL [17]: 0.57 | t1/2 ([18]; single dose 1.5 g, harmonic mean (pseudo SD)): 9 ± 7 h

Tmax following a high-fat meal [1]: prolonged | Effect of high fat meal on overall (rate and) extent of absorption ([1]; 1.6 g granules): not affected | Effect of high fat meal on plasma Cmax ([1]; 1.6 g granules): equivalent | Inhibition of CYP1A2 (CYP1A2): not to inhibit | Inhibition of CYP2C9 (CYP2C9): not to inhibit | Inhibition of CYP2C19 (CYP2C19): not to inhibit | Inhibition of CYP2D6 (CYP2D6): not to inhibit | Inhibition of CYP3A4 (CYP3A4): not to inhibit | Concentration detected in human breast milk [9]: higher concentrations | AUC C/B Ratio (90% CI) [10, 35]: 93 (78, 112) | Cmax C/B Ratio (90% CI) [10, 35]: 118 (98, 143) | Steady state plasma concentrations as measured by Cmax, QD compared to BID [10, 19]: higher | Systemic exposure, QD versus BID regimen [10]: comparable | Time to maximum drug concentrations, mean [10, 20]: 11.68 h | Time to maximum drug concentrations, mean [10, 21]: 5.21 h | Cmax ratio, QD compared to BID ([10]; granulated mesalamine formulation, steady state): 118% | AUC ([10]; human, plasma, oral, 800 mg, AUC, AUCC, Day 4, after Asacol 800 mg BID, converted from μmol * h/L): 30700 ± 22200 ng·h/mL | AUC [10, 22]: 46400 ± 15400 ng·h/mL | AUC [10, 23]: 158 ± 114 µM·h | AUC [10, 24]: 238 ± 79.1 µM·h | Cmax [10, 25]: 2340 ± 1800 ng/mL | Cmax [10, 26]: 3610 ± 1230 ng/mL | Cmax [10, 27]: 12 ± 9.22 µM | Cmax [10, 28]: 18.5 ± 6.31 µM | AUC [10, 29]: 45800 ± 19700 ng·h/mL | AUC [10, 30]: 235 ± 101 µM·h | Cmax [10, 31]: 4500 ± 1820 ng/mL | Cmax [10, 32]: 23.1 ± 9.35 µM | Tmax [10, 33]: 16 h | Tmax [10, 34]: 3 h | T1/2 [14]: 10.05 h | fraction unbound at 2.5 μg/mL (in vitro): 0.22 | half-life (clinical [16]): 10.1 h | Increase in systemic exposure (AUC0-24) at steady state compared with a single dose ([18]; 1.5 g granulated mesalamine formulation): 1.7 fold | AUC(0-inf) ([18]; human, plasma, oral, 1.5 g): 51000 ± 23000 ng·h/mL | AUC(0-t) [18, 36]: 37000 ± 9000 ng·h/mL | AUC(0-t) ([18]; human, plasma, oral, 1.5 g, single dose 1.5 g granulated mesalamine formulation, fasting): 26000 ± 6000 ng·h/mL | Cmax ([18]; human, plasma, oral, 1.5 g, plasma, multiple dose 1.5 g QD, after 7 days): 3400 ± 900 ng/mL | Cmax [18, 37]: 2800 ± 800 ng/mL | half-life ([18]; human, plasma, oral, 1.5 g, Mean half-lives, following single and multiple doses of granulated mesalamine formulation): 12 to 14 h | Tmax [18, 36]: 5 h | Tmax [18, 37]: 4 h | half-life ([18]; human, plasma, oral, 1.5 g, t1/2, multiple dose 1.5 g QD, after 7 days, harmonic mean (pseudo SD)): 14 ± 10 h | half-life ([18]; human, plasma, oral, 1.5 g, t1/2, single dose 1.5 g, harmonic mean (pseudo SD)): 12 ± 11 h
Compound: CC(=O)Nc1ccc(O)c(C(=O)O)c1 [N-Ac-5-ASA, N-acetyl-5-aminosalicylic acid]
